How the values were obtained:
Details in all cases: Compound concentration 1.0 uM
[1] = molecular target: Serine/threonine-protein kinase/endoribonuclease IRE1 (Homo sapiens) (UniProt O75460); experiment: activity of IRE1(h) at 1.0 µM in the Eurofins Kinase panel
[2] = molecular target: Serine/threonine-protein kinase D3 (Homo sapiens) (UniProt O94806); experiment: activity of PKD3(h) at 1.0 µM in the Eurofins Kinase panel
[3] = molecular target: Glycogen synthase kinase-3 alpha (Homo sapiens) (UniProt P49840); experiment: activity of GSK3alpha(h) at 1.0 µM in the Eurofins Kinase panel
[4] = molecular target: Casein kinase I isoform gamma-1 (Homo sapiens) (UniProt Q9HCP0); experiment: activity of CK1gamma1(h) at 1.0 µM in the Eurofins Kinase panel
Casein kinase I isoform gamma-1 (Homo sapiens), sequence (Q9HCP0 whole entry, looked up, canonical isoform): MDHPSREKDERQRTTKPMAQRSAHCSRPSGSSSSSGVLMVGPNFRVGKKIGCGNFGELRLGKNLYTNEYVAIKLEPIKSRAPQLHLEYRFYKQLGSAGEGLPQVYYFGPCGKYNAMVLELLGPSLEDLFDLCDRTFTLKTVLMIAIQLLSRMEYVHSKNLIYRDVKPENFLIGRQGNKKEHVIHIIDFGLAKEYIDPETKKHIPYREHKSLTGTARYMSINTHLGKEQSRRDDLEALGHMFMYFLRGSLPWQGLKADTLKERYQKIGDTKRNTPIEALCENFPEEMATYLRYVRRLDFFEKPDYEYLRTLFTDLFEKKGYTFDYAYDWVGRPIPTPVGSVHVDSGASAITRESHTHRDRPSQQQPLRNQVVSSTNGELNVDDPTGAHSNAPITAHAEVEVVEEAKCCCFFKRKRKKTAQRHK

[5] = molecular target: Calcium/calmodulin-dependent protein kinase kinase 1 (Homo sapiens) (UniProt Q8N5S9); experiment: activity of CaMKK1(h) at 1.0 µM in the Eurofins Kinase panel
[6] = molecular target: Serine/threonine-protein kinase 24 (Homo sapiens) (UniProt Q9Y6E0); experiment: activity of MST3(h) at 1.0 µM in the Eurofins Kinase panel
[7] = molecular target: Calcium/calmodulin-dependent protein kinase type II subunit gamma (Homo sapiens) (UniProt Q13555); experiment: activity of CaMKIIgamma(h) at 1.0 µM in the Eurofins Kinase panel
[8] = molecular target: Ephrin type-B receptor 4 (Homo sapiens) (UniProt P54760); experiment: activity of EphB4(h) at 1.0 µM in the Eurofins Kinase panel
[9] = molecular target: Serine/threonine-protein kinase PRP4 homolog (Homo sapiens) (UniProt Q13523); experiment: activity of PRP4(h) at 1.0 µM in the Eurofins Kinase panel
[10] = molecular target: Protein kinase C alpha type (Homo sapiens) (UniProt P17252); experiment: activity of PKCalpha(h) at 1.0 µM in the Eurofins Kinase panel
[11] = molecular target: Casein kinase 2 (Homo sapiens) (UniProt P67870+P68400+P19784+Q8NEV1); experiment: activity of CK2(h) at 1.0 µM in the Eurofins Kinase panel; format: protein assay
[12] = molecular target: Ribosomal protein S6 kinase beta-1 (Homo sapiens) (UniProt P23443); experiment: activity of p70S6K(h) at 1.0 µM in the Eurofins Kinase panel
[13] = molecular target: Inhibitor of nuclear factor kappa-B kinase subunit alpha (Homo sapiens) (UniProt O15111); experiment: activity of IKKalpha(h) at 1.0 µM in the Eurofins Kinase panel
Inhibitor of nuclear factor kappa-B kinase subunit alpha (Homo sapiens), sequence (O15111 whole entry): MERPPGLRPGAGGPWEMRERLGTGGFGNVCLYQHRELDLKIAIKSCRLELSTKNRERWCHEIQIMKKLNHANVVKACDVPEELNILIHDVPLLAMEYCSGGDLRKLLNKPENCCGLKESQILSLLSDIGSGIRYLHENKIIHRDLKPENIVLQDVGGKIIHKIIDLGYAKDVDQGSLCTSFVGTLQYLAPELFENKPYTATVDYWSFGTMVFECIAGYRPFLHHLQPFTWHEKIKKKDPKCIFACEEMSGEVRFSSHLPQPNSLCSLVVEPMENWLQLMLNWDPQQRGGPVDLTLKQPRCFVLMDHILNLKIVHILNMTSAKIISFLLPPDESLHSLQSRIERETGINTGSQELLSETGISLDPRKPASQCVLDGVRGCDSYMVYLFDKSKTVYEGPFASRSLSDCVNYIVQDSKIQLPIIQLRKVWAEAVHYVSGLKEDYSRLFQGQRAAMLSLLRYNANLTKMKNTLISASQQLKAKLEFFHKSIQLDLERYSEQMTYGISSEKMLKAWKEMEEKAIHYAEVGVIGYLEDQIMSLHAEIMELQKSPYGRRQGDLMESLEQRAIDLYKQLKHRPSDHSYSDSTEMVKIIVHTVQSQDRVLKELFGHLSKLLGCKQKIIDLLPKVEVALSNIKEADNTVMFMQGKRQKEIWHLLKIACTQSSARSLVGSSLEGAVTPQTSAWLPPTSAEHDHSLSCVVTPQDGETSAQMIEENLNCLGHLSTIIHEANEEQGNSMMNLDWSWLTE

[14] = molecular target: Rho-associated protein kinase 2 (Homo sapiens) (UniProt O75116); experiment: activity of ROCK-II(h) at 1.0 µM in the Eurofins Kinase panel
[15] = molecular target: Protein kinase C zeta type (Homo sapiens) (UniProt Q05513); experiment: activity of PKCzeta(h) at 1.0 µM in the Eurofins Kinase panel
[16] = molecular target: Protein kinase C beta type (Homo sapiens) (UniProt P05771); experiment: activity of PKCbetaII(h) at 1.0 µM in the Eurofins Kinase panel
[17] = molecular target: eIF-2-alpha kinase GCN2 (Homo sapiens) (UniProt Q9P2K8); experiment: activity of GCN2(h) at 1.0 µM in the Eurofins Kinase panel
[18] = molecular target: Hepatocyte growth factor receptor (Homo sapiens) (UniProt P08581); experiment: activity of Met(h) at 1.0 µM in the Eurofins Kinase panel
[19] = molecular target: NUAK family SNF1-like kinase 2 (Homo sapiens) (UniProt Q9H093); experiment: activity of NUAK2(h) at 1.0 µM in the Eurofins Kinase panel
[20] = molecular target: Tyrosine-protein kinase BTK (Homo sapiens) (UniProt Q06187); experiment: activity of BTK(h) at 1.0 µM in the Eurofins Kinase panel
[21] = molecular target: Serine/threonine-protein kinase WNK4 (Homo sapiens) (UniProt Q96J92); experiment: activity of WNK4(h) at 1.0 µM in the Eurofins Kinase panel
Serine/threonine-protein kinase WNK4 (Homo sapiens), sequence (Q96J92 whole entry): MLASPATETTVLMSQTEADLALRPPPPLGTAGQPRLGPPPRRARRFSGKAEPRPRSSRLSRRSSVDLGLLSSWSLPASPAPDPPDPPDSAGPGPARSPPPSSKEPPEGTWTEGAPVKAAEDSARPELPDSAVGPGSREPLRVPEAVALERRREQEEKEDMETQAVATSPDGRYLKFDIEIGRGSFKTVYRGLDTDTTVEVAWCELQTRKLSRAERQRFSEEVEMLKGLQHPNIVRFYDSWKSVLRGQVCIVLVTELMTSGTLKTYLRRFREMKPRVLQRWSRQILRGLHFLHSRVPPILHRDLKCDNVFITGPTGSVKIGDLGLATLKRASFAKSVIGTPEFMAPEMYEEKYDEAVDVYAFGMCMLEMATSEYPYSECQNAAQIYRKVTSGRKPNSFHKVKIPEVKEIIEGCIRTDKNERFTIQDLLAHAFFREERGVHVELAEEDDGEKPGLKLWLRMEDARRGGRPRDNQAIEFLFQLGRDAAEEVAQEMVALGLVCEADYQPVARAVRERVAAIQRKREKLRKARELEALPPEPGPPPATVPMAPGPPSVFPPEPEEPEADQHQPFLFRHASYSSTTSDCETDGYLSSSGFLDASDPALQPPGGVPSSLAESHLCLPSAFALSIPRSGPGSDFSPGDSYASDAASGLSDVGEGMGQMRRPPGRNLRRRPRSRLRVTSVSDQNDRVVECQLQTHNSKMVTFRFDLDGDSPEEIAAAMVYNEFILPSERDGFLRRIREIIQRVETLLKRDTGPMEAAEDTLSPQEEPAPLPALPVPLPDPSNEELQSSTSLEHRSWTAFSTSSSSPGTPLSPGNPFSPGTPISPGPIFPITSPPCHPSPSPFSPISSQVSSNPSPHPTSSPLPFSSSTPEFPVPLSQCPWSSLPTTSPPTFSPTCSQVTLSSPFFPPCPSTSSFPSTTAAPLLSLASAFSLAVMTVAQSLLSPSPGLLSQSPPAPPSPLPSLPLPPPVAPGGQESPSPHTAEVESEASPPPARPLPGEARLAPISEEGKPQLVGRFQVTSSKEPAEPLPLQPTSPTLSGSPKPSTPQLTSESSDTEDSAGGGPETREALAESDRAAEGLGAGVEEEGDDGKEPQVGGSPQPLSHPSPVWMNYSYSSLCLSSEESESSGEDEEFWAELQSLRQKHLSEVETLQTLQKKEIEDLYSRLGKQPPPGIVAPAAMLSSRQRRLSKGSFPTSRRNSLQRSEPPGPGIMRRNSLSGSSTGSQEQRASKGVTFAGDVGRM

[22] = molecular target: Tau-tubulin kinase 1 (Homo sapiens) (UniProt Q5TCY1); experiment: activity of TTBK1(h) at 1.0 µM in the Eurofins Kinase panel
[23] = molecular target: Serine/threonine-protein kinase PAK 2 (Homo sapiens) (UniProt Q13177); experiment: activity of PAK2(h) at 1.0 µM in the Eurofins Kinase panel
[24] = molecular target: Serine/threonine-protein kinase TAO1 (Homo sapiens) (UniProt Q7L7X3); experiment: activity of TAO1(h) at 1.0 µM in the Eurofins Kinase panel
[25] = molecular target: Insulin-like growth factor 1 receptor (Homo sapiens) (UniProt P08069); experiment: activity of IGF-1R(h) at 1.0 µM in the Eurofins Kinase panel
[26] = molecular target: Serine/threonine-protein kinase D2 (Homo sapiens) (UniProt Q9BZL6); experiment: activity of PKD2(h) at 1.0 µM in the Eurofins Kinase panel
[27] = molecular target: Tyrosine-protein kinase SYK (Homo sapiens) (UniProt P43405); experiment: activity of Syk(h) at 1.0 µM in the Eurofins Kinase panel
[28] = molecular target: Maternal embryonic leucine zipper kinase (Homo sapiens) (UniProt Q14680); experiment: activity of MELK(h) at 1.0 µM in the Eurofins Kinase panel
Maternal embryonic leucine zipper kinase (Homo sapiens), sequence (Q14680 whole entry, looked up): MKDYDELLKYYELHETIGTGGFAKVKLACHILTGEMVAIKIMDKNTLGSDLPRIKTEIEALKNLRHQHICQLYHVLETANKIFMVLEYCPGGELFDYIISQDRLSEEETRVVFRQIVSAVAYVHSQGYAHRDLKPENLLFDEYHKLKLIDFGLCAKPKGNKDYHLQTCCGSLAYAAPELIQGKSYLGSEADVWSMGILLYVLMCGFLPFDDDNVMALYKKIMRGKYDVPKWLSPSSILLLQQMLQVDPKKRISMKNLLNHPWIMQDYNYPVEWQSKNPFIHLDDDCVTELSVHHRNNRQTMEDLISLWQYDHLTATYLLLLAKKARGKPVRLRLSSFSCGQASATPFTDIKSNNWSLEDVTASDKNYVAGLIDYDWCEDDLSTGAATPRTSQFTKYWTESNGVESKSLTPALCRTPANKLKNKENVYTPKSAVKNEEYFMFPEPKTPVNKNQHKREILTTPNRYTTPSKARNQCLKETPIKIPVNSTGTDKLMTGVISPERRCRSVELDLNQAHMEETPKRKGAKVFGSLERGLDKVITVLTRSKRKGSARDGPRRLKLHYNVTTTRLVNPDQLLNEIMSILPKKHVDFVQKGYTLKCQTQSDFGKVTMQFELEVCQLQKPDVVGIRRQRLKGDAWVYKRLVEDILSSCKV

[29] = molecular target: 5'-AMP-activated protein kinase catalytic subunit alpha-2 (Homo sapiens) (UniProt P54646); experiment: activity of AMPKalpha2(h) at 1.0 µM in the Eurofins Kinase panel
[30] = molecular target: Serine/threonine-protein kinase 17A (Homo sapiens) (UniProt Q9UEE5); experiment: activity of DRAK1(h) at 1.0 µM in the Eurofins Kinase panel
[31] = molecular target: Dual specificity tyrosine-phosphorylation-regulated kinase 1B (Homo sapiens) (UniProt Q9Y463); experiment: activity of DYRK1B(h) at 1.0 µM in the Eurofins Kinase panel
Dual specificity tyrosine-phosphorylation-regulated kinase 1B (Homo sapiens), sequence (Q9Y463 whole entry, looked up): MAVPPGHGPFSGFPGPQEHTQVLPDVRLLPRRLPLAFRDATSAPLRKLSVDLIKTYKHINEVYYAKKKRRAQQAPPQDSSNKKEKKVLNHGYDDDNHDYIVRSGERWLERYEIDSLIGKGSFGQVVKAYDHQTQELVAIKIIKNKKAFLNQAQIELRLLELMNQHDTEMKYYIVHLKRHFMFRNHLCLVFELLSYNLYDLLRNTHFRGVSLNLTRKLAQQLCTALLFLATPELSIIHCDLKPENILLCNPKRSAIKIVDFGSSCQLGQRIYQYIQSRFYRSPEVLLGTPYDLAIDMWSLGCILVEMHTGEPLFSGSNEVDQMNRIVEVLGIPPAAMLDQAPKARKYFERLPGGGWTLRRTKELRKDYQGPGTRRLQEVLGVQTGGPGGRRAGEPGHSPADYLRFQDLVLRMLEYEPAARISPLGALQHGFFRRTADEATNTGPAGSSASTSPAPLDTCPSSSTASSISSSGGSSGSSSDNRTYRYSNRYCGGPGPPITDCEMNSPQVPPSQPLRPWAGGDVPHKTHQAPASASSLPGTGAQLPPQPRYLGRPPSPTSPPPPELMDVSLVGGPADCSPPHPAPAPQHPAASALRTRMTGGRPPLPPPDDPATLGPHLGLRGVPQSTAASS

[32] = molecular target: Testis-specific serine/threonine-protein kinase 3 (Homo sapiens) (UniProt Q96PN8); experiment: activity of TSSK3(h) at 1.0 µM in the Eurofins Kinase panel
[33] = molecular target: High affinity nerve growth factor receptor (Homo sapiens) (UniProt P04629); experiment: activity of TrkA(h) at 1.0 µM in the Eurofins Kinase panel
[34] = molecular target: Ephrin type-A receptor 7 (Homo sapiens) (UniProt Q15375); experiment: activity of EphA7(h) at 1.0 µM in the Eurofins Kinase panel
[35] = molecular target: Protein kinase C eta type (Homo sapiens) (UniProt P24723); experiment: activity of PKCeta(h) at 1.0 µM in the Eurofins Kinase panel
[36] = molecular target: SRSF protein kinase 2 (Homo sapiens) (UniProt P78362); experiment: activity of SRPK2(h) at 1.0 µM in the Eurofins Kinase panel
SRSF protein kinase 2 (Homo sapiens), sequence (P78362 whole entry, looked up, the tested form may be a part): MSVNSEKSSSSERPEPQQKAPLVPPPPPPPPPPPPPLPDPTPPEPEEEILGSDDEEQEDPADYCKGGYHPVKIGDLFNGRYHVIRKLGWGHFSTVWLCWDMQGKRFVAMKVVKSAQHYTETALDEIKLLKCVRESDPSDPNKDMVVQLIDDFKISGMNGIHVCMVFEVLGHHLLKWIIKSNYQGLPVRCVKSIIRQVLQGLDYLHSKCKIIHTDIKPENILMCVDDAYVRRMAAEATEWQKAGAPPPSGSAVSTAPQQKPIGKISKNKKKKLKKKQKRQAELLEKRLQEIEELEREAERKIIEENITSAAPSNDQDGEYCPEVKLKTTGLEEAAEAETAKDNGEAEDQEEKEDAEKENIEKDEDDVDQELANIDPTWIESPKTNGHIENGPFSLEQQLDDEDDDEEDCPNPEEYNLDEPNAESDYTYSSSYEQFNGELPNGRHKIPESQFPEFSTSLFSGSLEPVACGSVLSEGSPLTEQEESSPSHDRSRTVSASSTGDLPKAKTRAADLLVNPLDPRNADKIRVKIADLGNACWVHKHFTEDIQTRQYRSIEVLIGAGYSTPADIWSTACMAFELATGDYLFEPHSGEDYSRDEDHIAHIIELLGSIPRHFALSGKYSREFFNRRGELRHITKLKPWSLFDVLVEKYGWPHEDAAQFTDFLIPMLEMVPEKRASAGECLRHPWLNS

[37] = molecular target: LIM domain kinase 2 (Homo sapiens) (UniProt P53671); experiment: activity of LIMK2(h) at 1.0 µM in the Eurofins Kinase panel
[38] = molecular target: Tau-tubulin kinase 2 (Homo sapiens) (UniProt Q6IQ55); experiment: activity of TTBK2(h) at 1.0 µM in the Eurofins Kinase panel
[39] = molecular target: Mitogen-activated protein kinase kinase kinase 10 (Homo sapiens) (UniProt Q02779); experiment: activity of MLK2(h) at 1.0 µM in the Eurofins Kinase panel

Cc1cc2c(-c3ccc(NC(=O)[C@H](N)CC(C)(C)C)cc3C)ccnc2[nH]1
activity [1]: 99% | activity [2]: 97% | activity [3]: 87% | activity [4]: 101% | activity [5]: 89% | activity [6]: 85% | activity [7]: 106% | activity [8]: 107% | activity [9]: 100% | activity [10]: 92% | activity [11]: 112% | activity [12]: 93% | activity [13]: 98% | activity [14]: 96% | activity [15]: 88% | activity [16]: 87% | activity [17]: 101% | activity [18]: 90% | activity [19]: 72% | activity [20]: 122% | activity [21]: 97% | activity [22]: 96% | activity [23]: 95% | activity [24]: 83% | activity [25]: 98% | activity [26]: 95% | activity [27]: 66% | activity [28]: 82% | activity [29]: 117% | activity [30]: 80% | activity [31]: 108% | activity [32]: 96% | activity [33]: 105% | activity [34]: 114% | activity [35]: 118% | activity [36]: 93% | activity [37]: 72% | activity [38]: 94% | activity [39]: 77%
